From PubChem BioAssay AID624258 (Broad Institute, 2012) come the findings set out here.

Calls of active or inactive are those of the source. No rule for the calls is given here.

The assay concerns S. cerevisiae SKN7-toxicity growth rescue, plate reader. Briefly: Yeast SKN7 toxicity growth rescue counterscreen, Saccharomyces cerevisiae, plate reader, dose confirmatory (AID 624258).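 Also: growth read after three days of incubation at 30 °C.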 For orientation: The purpose of a counterscreen is to sort out artefacts and off-target activity.
For the molecule `O=[N+]([O-])c1ccc(-c2nc(-c3cccs3)c(-c3cccs3)[nH]2)cc1`, the AC40 is 4720 nM.

Regarding `O=[N+]([O-])c1cc(Cl)cc(/C=N/NC(=S)Nc2ccc(S(=O)(=O)N3CCOCC3)cc2)c1O`, the AC40 was 2220 nM.

As for `O=c1c(-c2cccc3ccccc23)[n+]([O-])c2ccccc2n1O`, the AC40 is 12600 nM.

Regarding `O=C(CCc1ccccc1)NNC(=S)NC(=O)c1ccccc1`, the AC40 is 923 nM.

As to `O=C1c2ccccc2C2=Nc3ccccc3SC(c3cccc(F)c3)C12` (stereo not given), the AC40 was 1240 nM.

Turning to `Cc1cccc(C)c1NS(=O)(=O)c1ccc(-c2cnc(C3CC3)o2)cc1`, the AC40 was 7850 nM.

As for `COC(=O)c1ccc(SC2CCCCC2)c([N+](=O)[O-])c1`, the AC40 was 1470 nM.

Take `CC1CC(C)CN(C(=O)c2cccc(S(=O)(=O)Nc3cc(C(F)(F)F)ccc3Cl)c2)C1` (stereo not given): the AC40 is 16800 nM.

Consider `O=[N+]([O-])c1cc(C(F)(F)F)ccc1NCCc1c[nH]c2ccc(O)cc12`, for which the AC40 is 1110 nM.

As for `CC(/C=N/n1c(COc2ccccc2)n[nH]c1=S)=C\c1ccccc1`, the AC40 was > 19500 nM (inactive).

For `O=c1[nH]c(=O)n(C2OC(CO)C(O)C2O)cc1F` (stereo not given), the AC40 is 12900 nM.

Consider `O=C(O/N=C(\c1ccccc1)c1ccncc1)c1ccccc1Cl`, for which the AC40 was 9260 nM.

Consider `COc1ccc(NC(=O)/C(Cl)=C(/Cl)S(=O)(=O)Cc2ccc(C)cc2)cn1`, for which the AC40 is 1240 nM.

As for `COc1ccccc1N(C)S(=O)(=O)c1ccc(Cl)c(C(=O)NNC(=O)c2ccccc2O)c1`, the AC40 was 1950 nM.

`CCOC(=O)C1=C(Cc2ccc(OC)cc2)C(=O)c2ccccc2C1=O`: the AC40 is 2670 nM.

For the molecule `O=C(CSc1ccc(-c2ccccn2)nn1)NCc1ccccc1`, the AC40 is 7080 nM.

Turning to `CC(C)=CCc1c(O)cc(O)c2c1OC(c1ccc(O)cc1)CC2=O` (stereo not given), the AC40 is 12700 nM.

As to `CCOC(=O)c1ccc(NC(=O)CC2OCCN(CC)C2=O)cc1` (stereo not given), the AC40 was 5810 nM.

With `Cc1onc(-c2ccccc2)c1C(=O)OCc1nnc(-c2ccc([N+](=O)[O-])cc2)o1`, the AC40 is 2270 nM.

Turning to `COc1ccc(CNC(=O)c2c(C)oc3c2C(=O)c2ccccc2C3=O)cc1`, the AC40 is 8260 nM.

Turning to `CC1CCCCC1NC(=O)/C(C#N)=C/c1ccccc1F` (stereo not given), the AC40 is 2040 nM.

Consider `COc1ccc(N(C(=O)c2ccncc2)S(=O)(=O)c2ccc(F)cc2)cc1`, for which the AC40 was 3670 nM.

Consider `CCC(=O)NC(c1cc(Cl)c2cccnc2c1O)C(C)C` (stereo not given), for which the AC40 was 3150 nM.

Take `C/C(CC(=O)Nc1ccccn1)=N\NC(=O)c1ccccc1O`: the AC40 is 5110 nM.

In the case of `O=c1cnn([C@@H]2O[C@H](CO)[C@@H](O)[C@H]2O)c(=O)[nH]1`, the AC40 is 882 nM.

As for `CC(C)(C)c1cc(-c2nc(N)nc(N)n2)c(O)c(C(C)(C)C)c1`, the AC40 is 1920 nM.

`Cc1ccc(S(=O)(=O)N2CCOC23CCN(C(=O)c2cc(Cl)ccc2Cl)CC3)cc1`: the AC40 is 7250 nM.

Turning to `Cc1ccc(NC(=O)c2cc(N3C(=O)C=CC3=O)ccc2Cl)cc1C`, the AC40 is 342 nM.

As to `Cc1ccc(-n2nnnc2C(Cl)c2nnnn2-c2ccc(C)cc2)cc1`, the AC40 was 497 nM.

As for `N#CC1=C(N)NC(=S)C(C(N)=O)C1c1ccc(Cl)cc1Cl` (stereo not given), the AC40 was 10500 nM.

With `Cc1cc(-c2ccccc2)n(-c2cc(N/N=C/c3ccccc3O)ncn2)n1`, the AC40 was > 19500 nM (inactive).

Turning to `COc1cccc(/C=N/Nc2ncnc(Cl)c2N)c1O`, the AC40 is 3720 nM.

On to `CCCC1CCC(c2ccc(/C(N)=N/O)cc2)CC1` (stereo not given), for which the AC40 was 476 nM.

On to `O=C(Oc1cccc(C(=S)N2CCOCC2)c1)c1ccc([N+](=O)[O-])cc1[N+](=O)[O-]`, for which the AC40 is 16400 nM.

Regarding `Cc1nnc(N=c2ssnc2Cl)o1`, the AC40 was 832 nM.

`Cc1ccc(-c2nc3ccc(Cl)cc3c(=O)n2O)cc1`: the AC40 is 914 nM.

In the case of `CC1=CC(=O)C=C(C)C1=NOS(=O)(=O)c1ccccc1`, the AC40 was 454 nM.

For `Cc1ccc(C)c(S(=O)(=O)N2CCN(Cc3ccc(O)c4ncccc34)CC2)c1`, the AC40 was 5930 nM.

Regarding `Cc1oc2c(c1C(=O)c1ccc(Cl)cc1)C(=O)C(=O)c1ccccc1-2`, the AC40 is 1270 nM.

As for `S=C(NCCCc1ccccc1)Nc1ccccc1Cl`, the AC40 is 5290 nM.

With `O=C(C=Cc1cccc(O)c1)c1ccccc1O`, the AC40 was 1430 nM.

Regarding `Cc1ccc(-c2cc(-c3ccc(C)cc3)[n+](-c3ccccc3)c(-c3ccc(C)cc3)c2)cc1`, the AC40 was 4130 nM.

Consider `Cc1cccc(N2CCN(C(=O)C3CCCCC3)CC2)c1C`, for which the AC40 was 19300 nM.

Take `Cc1cc2[nH]c3c4ccccc4nc(C)c3c2cc1C`: the AC40 was 11200 nM.

In the case of `Cc1cccc(C)c1NC(=O)c1nc(S(=O)(=O)Cc2ccccc2)ncc1Cl`, the AC40 was 7570 nM.

With `O=S(=O)(CCSc1ccccn1)c1nc2ccccc2s1`, the AC40 is 6530 nM.

For the molecule `COc1ccc(S(=O)(=O)N(C(=O)c2ccncc2)c2ccc(OC(=O)c3ccncc3)cc2)cc1`, the AC40 is 1880 nM.

For the molecule `COC(=O)/C=C\C(=O)Nc1cccc([N+](=O)[O-])c1`, the AC40 was 2170 nM.

As for `S=C(NCCCc1ccccc1)Nc1ccc(Br)cc1`, the AC40 was 4260 nM.

As for `O=S(=O)(CCSc1nc2ccccc2o1)c1nc2ccccc2s1`, the AC40 was 3620 nM.

Turning to `COc1cc(NC(=O)CSc2ccc(-c3ccccn3)nn2)cc(OC)c1`, the AC40 is 894 nM.

As to `O=C(CSc1ccc(-c2ccccn2)nn1)N1CCc2ccccc21`, the AC40 is 10200 nM.

`c1cncc(-c2nnc(-c3cccnc3)nn2)c1`: the AC40 was 8280 nM.

In the case of `COc1ccc(-c2csc(NC(=O)c3ccccc3F)c2C(=O)O)cc1`, the AC40 was 644 nM.

Take `COc1ccc2c(c1)c1nnc(SC)nc1n2C`: the AC40 is 2000 nM.

Consider `O=S(=O)(CCSc1nc2ccccc2s1)c1nc2ccccc2s1`, for which the AC40 was 2430 nM.

On to `Oc1ccc(-c2nc3ccccc3s2)c(O)c1`, for which the AC40 is 726 nM.

For `CC(=O)NC(c1ccc(Cl)cc1Cl)c1ccc2cccnc2c1O` (stereo not given), the AC40 is 1380 nM.

With `CC1=CC(=O)C(C(C)C)=C/C1=N/OC(=O)c1cccc([N+](=O)[O-])c1`, the AC40 was 1050 nM.

With `CC(C)(C)n1nc(-c2ccc(Cl)cc2)c2c(N)ncnc21`, the AC40 was 12600 nM.

On to `O=C1C=C(c2ccccc2)C(=O)N1Nc1ccccc1`, for which the AC40 was 1150 nM.

As for `CCc1nc2ccccc2c(=O)n1NC(=O)c1c(O)c2ccccc2n(CC)c1=O`, the AC40 was 2090 nM.

Regarding `O=C1c2ccccc2NC(c2ccc(Cl)cc2Cl)N1O` (stereo not given), the AC40 is 7550 nM.

With `O=C(O)c1ccc(N/N=C/C=C/c2ccccc2)cc1`, the AC40 was 1110 nM.

Turning to `COc1cccc2c1C(=O)c1c(O)c3c(c(O)c1C2=O)CC(O)(C(C)=O)CC3OC1CC(N(C)C)C(O)C(C)O1` (stereo not given), the AC40 is 2850 nM.

Take `O=C1C=C(Nc2cccnc2)c2ccccc2C1=O`: the AC40 is 11000 nM.

Consider `O=C(/C=C/c1ccccc1)c1cc(Br)ccc(=O)c1O`, for which the AC40 is 2080 nM.

As for `Oc1cc(Nc2ccccc2)cc2cccnc12`, the AC40 was 3810 nM.

Take `COc1cccc(CNC(=O)CSc2ccc(-c3ccccn3)nn2)c1`: the AC40 was 16400 nM.

On to `Cc1cc(/C=N/n2cnnc2)c(C)n1-c1ccc(OCc2ccc(F)cc2)cc1`, for which the AC40 is 516 nM.

With `Cc1ccc(CCNc2ncnc(Cl)c2N)cc1`, the AC40 was 3870 nM.

Turning to `O=c1c2c(-c3ccc(Cl)cc3)csc2ncn1/N=C/c1cccc([N+](=O)[O-])c1O`, the AC40 is 1230 nM.

`C(=N\NC1=Nc2cccc3cccc1c23)/c1ccccn1`: the AC40 was 5470 nM.

For `CCCCNC1=CC(=O)C(=O)c2ccccc21`, the AC40 is 17500 nM.

With `O/C(=C\c1nc2ccccc2nc1/C=C(\O)c1ccccc1)c1ccccc1`, the AC40 was 4590 nM.

With `CCOC(=O)CSC1=NC(=O)/C(=C\c2ccc(Cl)cc2)S1`, the AC40 was 6090 nM.

As to `Cc1cc(C(=O)N/N=C/c2cc(Br)cc([N+](=O)[O-])c2O)c2ccccc2n1`, the AC40 is 1270 nM.

`COc1cccc(CNC(=O)COc2ccc(C(=O)c3ccccc3)cc2)c1`: the AC40 is 18000 nM.

In the case of `O=C(Nc1ccccc1N1CCOCC1)c1cc2c(s1)CCCCC2`, the AC40 was 7060 nM.

As to `N/C(Cc1ccc(Cl)cc1Cl)=N\OC(=O)c1ccccc1F`, the AC40 is 718 nM.

In the case of `CN(C1=C(NC(=O)c2ccc(Cl)cc2)C(=O)c2ccccc2C1=O)c1ccccc1`, the AC40 is 4870 nM.

Turning to `O=c1c(O)cccc2cc(O)c(O)c(O)c12`, the AC40 is 2270 nM.

As to `C[C@H](O)[C@H]1CC[C@H]2[C@@H]3CCC4=CC(=O)CC[C@]4(C)[C@H]3CC[C@]12C`, the AC40 was 2050 nM.

On to `Cc1ccc(CNC(=O)C2COc3ccccc3O2)cc1` (stereo not given), for which the AC40 was 17700 nM.

For the molecule `Cc1cccc(N2C(=O)C(Oc3ccc(Cl)cc3Cl)C2C=O)c1C` (stereo not given), the AC40 is 1980 nM.

With `O=C1c2ccccc2C(=O)c2c1oc(C(F)(F)F)c2C(=O)c1ccccc1`, the AC40 was 2600 nM.

For the molecule `O=[N+]([O-])c1cc2oc3c(c2c(C=NCc2ccccc2)c1O)CCCC3`, the AC40 was 1380 nM.

On to `O=c1c2cc(Cl)ccc2oc2nc3n(c(=O)c12)CCCS3`, for which the AC40 is 19100 nM.

Turning to `CN1CCN(C2CCN(c3ccc(Nc4nnc(Cl)c(Nc5ccccc5S(C)(=O)=O)n4)c(OC(CF)CF)c3)CC2)CC1`, the AC40 is 15100 nM.

In the case of `O=C(COC(=O)c1ccc([N+](=O)[O-])o1)NC1CCCc2ccccc21` (stereo not given), the AC40 was 2340 nM.

As for `Cc1csc2nc(O)c(C(=O)NCCCc3ccccc3)c(=O)n12`, the AC40 is 801 nM.

Turning to `COc1ccc(N2C(=O)C(Cl)=C(Nc3ccccc3O)C2=O)cc1`, the AC40 was 4900 nM.

`CCN(CC)c1ccc(/C=N/NC(=O)c2cccc(S(=O)(=O)N3CCOCC3)c2)c(O)c1`: the AC40 was 1390 nM.

Turning to `O=S(=O)(NCC1COc2ccccc2O1)c1ccc2ccccc2c1` (stereo not given), the AC40 was 8680 nM.

Consider `O=C(C1=C(Nc2ccccc2)c2ccccc2S(=O)(=O)N1)c1ccccc1`, for which the AC40 was 2510 nM.

Turning to `COc1ccccc1-c1cc(C(F)(F)F)nc(S(C)(=O)=O)n1`, the AC40 was 1710 nM.

On to `COc1cc(C(=O)ON=C2C3CC4CC(C3)CC2C4)cc(OC)c1OC`, for which the AC40 is 1790 nM.

Turning to `CN(C)c1ccc(-n2cccc2/C=C/[N+](=O)[O-])cc1`, the AC40 was 1160 nM.

In the case of `Cc1ccc(N(CN2C(=O)c3ccccc3C2=O)C(=O)c2ccc([N+](=O)[O-])cc2[N+](=O)[O-])cc1`, the AC40 is 7160 nM.

For `Cc1ccc(S(=O)(=O)N/N=C\c2ccc([N+](=O)[O-])o2)cc1C`, the AC40 was 10500 nM.
